Where two headings read alike, the source gives them in different places. Square brackets hold non-standard residues; d marks the D form. Peptide text beside a SMILES is read from it. * marks the point of attachment. Sta = CC(C)C[C@H](N)[C@@H](O)CC(=O)O; Isovaleryl = CC(C)CC(=O)*
Experiments:
HIV-1 protease [1] = molecular target: T1, HIV-1 protease (Human immunodeficiency virus type 1 group M subtype B, UniProt P04585); assay: HIV-1 protease inhibition (SensoLyte 520 kit); assay type: biochemical; settings: 25 μM
T1 construct: the virus-encoded protease; endogenous in cells; host or cells: persistently infected HuT-78/HIV-1(IIIB) cells and released virus particles
Procedure: The ability of the compounds to inhibit the activity of recombinant HIV-1 protease was determined by a SensoLyte 520 HIV-1 protease assay kit (AnaSpec Inc., Fremont, CA) according to the manufacturer’s instructions. Compounds (10 μl of a 250 μM, solution, giving a final concentration of 25 μM in the reaction mixture) and 40 μl HIV-1 protease (100 ng/well; AnaSpec Inc.) were added to a dark-bottom 96-well plate. Pepstatin A was included as an inhibitor control. The plate as well as the HIV-1 protease substrate solution (provided) were incubated for 15 minutes at 37°C and 50 μl protease substrate was added to all wells. The fluorescence was measured at Ex/Em = 490 nm/520 nm with a Varioskan Flash (Thermo Electron Corporation, Schwerte, Germany).

HIV-1(IIIB) [2] = assay: microbe, parasite or virus in culture; assay type: cell-based; settings: for EC50: Human immunodeficiency virus 1, IIIB, CCRF-CEM
Procedure: (§1) To study the antiviral activity in transformed cells, CEM cells were suspended in fresh culture medium and infected with HIV-1(IIIB) or HIV-2(ROD) at 100 x CCID50 (cell culture infective dose 50%) per ml of cell suspension. Infected cell suspension (100 μl; 3 x 10^5 cells/ml) was transferred to a 96-well microplate, mixed with 100 μl of the appropriate dilutions of compounds, and further incubated at 37°C. After 4 days, giant cell formation was recorded microscopically and the number of giant cells was estimated microscopically as percentage of the number of giant cells present in the non-treated virus-infected cell cultures.

HIV-1 [3] = assay: Infectivity (TZM-bl) of virus particles produced by ACH-2 cells in presence of compound; assay type: cell-based; settings: compound added at 1/100 of concentration in viral growth culture
Procedure: To measure the infectivity of particles produced in the presence of the compounds, washed persistently HIV-1-infected ACH-2 cells (1 x 10^6 cells/ml) were cultured with 100 nM PMA in the presence of the indicated concentration of compounds. After 3 days, the p24 content of the clarified supernatant (see virus expression) was measured. The cell supernatant was then used for an infectivity test (see infectivity assay) without the further addition of any compound to the cultures. The final dilution of the ACH-2 supernatant in the infectivity test was 1:100. A control experiment was performed, in which virus particles produced without the addition of compound, were used for the infectivity test. Additionally, the same amount of compound that could have been carried over with the virus containing supernatant in the original experiment was added to the infectivity test (final concentration: 1/100 of the indicated amount in the viral growth culture).

HeLa cells = assay: Cytostatic activity assay, HeLa cells; assay type: cell-based; settings: Homo sapiens, 72 h, read-out: IC50 HeLa
Procedure: (§2) The cytostatic activity assay using transformed cell lines was also performed in 96-well microtiter plates. 5–7.5 x 10^4 human CD4^+ T-lymphocyte CEM or human cervix carcinoma HeLa cells and a given amount of the test compounds were added to each well. The cells were allowed to proliferate for 72 h (96 h for HeLa) at 37°C in a humidified CO2-controlled atmosphere. At the end of the incubation period, the cells were counted in a Coulter counter (type ZM, Coulter Electronics, Analis, Ghent, Belgium).

HIV-1(BaL) = assay: Antiviral activity in PHA-stimulated PBMCs (p24 ELISA), HIV-1(BaL); assay type: cell-based; settings: Human immunodeficiency virus 1, BAL, PBMC, read-out: EC50 HIV-1 (BAL)
Procedure: (§3) To test the antiviral activity in fresh, PHA-stimulated PBMCs, an experiment was performed as previously described. Briefly, the cells were preincubated with HIV-1(IIIB), HIV-1(BaL) or HIV-1(HE) for 1 h at 37°C, using a viral load of 1000 x CCID50 per ml. Then, cell suspensions containing virus and 2 x 10^5 PBMCs were seeded in a 96-well microtiter plate and a serial dilution of compound was added, in a total volume of 200 μl. After 4 days, the cells were passaged and fresh culture medium, containing IL-2 and compound, was added. Three days later, cellular supernatants were harvested and viral replication in the presence of the compounds was quantified using a p24 enzyme-linked immunosorbent assay (ELISA) (Perkin Elmer, Brussels, Belgium). The half maximal effective concentration (EC50) was defined as the compound concentration that is required to block viral replication by 50%.

HIV-1 protease [4] = molecular target: T1, HIV-1 protease; assay: p55 cleavage in virus particles from HuT-78/HIV-1 cells (Western blot); assay type: cell-based; settings: 43 h, AZT 3.7 μM, ritonavir 2.8 μM, TE-10 1 and 20 μM
Procedure: In order to confirm the inhibitory effect of TE-10, an additional assay was performed to study the inhibition of the HIV-1 protease by TE-10. Therefore, 2 x 10^5 persistently infected HuT-78/HIV-1 cells were washed thoroughly and seeded in 48-well plates, in the presence or absence of compound. As reference compounds, the RT inhibitor AZT (3.7 μM) and the protease inhibitor ritonavir (2.8 μM) were used, as negative and positive controls, respectively. TE-10 was used at 1 μM and 20 μM. After 43 h of incubation at 37°C, virus-containing cell culture supernatants were harvested and the cells were removed by centrifugation (10 min at ± 900 x g). Then, virus was precipitated from the cell supernatant by centrifugation at ± 3.5 x 10^4 x g for at least 2 h. The viruses were resuspended in PBS and lysed with Triton-X100 (Sigma-Aldrich, Diegem, Belgium). These viral lysates were then subjected to SDS-PAGE and subsequent Western blotting to detect the presence of p24 and its precursor p55, using an anti-p24 antibody (AB9044; final concentration 2.4 μg/ml).

HIV-2(ROD) = assay: Inhibition of HIV-2(ROD)-induced giant cell formation in CEM cell cultures; assay type: cell-based
Procedure: as §1

HIV-1(HE) = assay: Antiviral activity in PHA-stimulated PBMCs (p24 ELISA), HIV-1(HE); assay type: cell-based; settings: Human immunodeficiency virus 1, PBMC, read-out: EC50 HIV-1 (HE)
Procedure: as §3

HIV-1(IIIB) [5] = assay: Antiviral activity in PHA-stimulated PBMCs (p24 ELISA), HIV-1(IIIB); assay type: cell-based; settings: Human immunodeficiency virus 1, IIIB, PBMC, read-out: EC50 HIV-1 (IIIB)
Procedure: as §3

CEM cells = assay: Cytostatic activity assay, CEM cells; assay type: cell-based; settings: Homo sapiens, CCRF-CEM, 72 h; inhibition of cell proliferation by 50%, three-day drug-exposed; mean ± SD
Procedure: as §2

HIV-1 [6] = assay: Infectivity assay in TZM-bl cells (luciferase); settings: TZM-bl, 40 h
Procedure: TZM-bl cells (1 x 10^5) were infected with diluted virus suspension (see virus expression) in a total volume of 0.2 ml DMEM medium in the presence of the compounds or an inhibitor control (nevirapine). After 40 h at 37°C, the luminescence was assayed and quantified in a Luminoskan Ascent (Thermo Labsystems, Schwerte, Germany) for luciferase activity using the OneGlo luciferase assay system (Promega, Nacka, Sweden).

[7] = previously known structural properties ref 20-22; cited from earlier work
PHA-stimulated PBMCs = assay: Toxicity in PHA-stimulated PBMCs (trypan blue cell counting); assay type: cell-based, human; settings: Homo sapiens, PBMC, 168 h, read-out: IC50 PBMC
Procedure: A similar experiment was performed to study the toxicity of the compounds in fresh, PHA-stimulated, PBMCs. Mock-infected PBMCs (2 x 10^5 cells) were exposed to a serial dilution of compound, in a total volume of 200 μl. Cells were passaged after 4 days. Cell survival and proliferation was assessed at day 7 using trypan blue-based cell counting with the Countess Automated Cell Counter (Invitrogen, Ghent, Belgium). The IC50 was defined as the concentration of the compound that inhibited cell proliferation by 50%.

[8] = system: HuT-78/HIV-1 and Sup-T1 cells; assay: cells; assay type: cell-based; settings: read-out: IC50 inhibition of syncytia formation
Procedure: Persistently infected HuT-78/HIV-1 cells were thoroughly washed to eliminate free virions. Next, 1 x 10^5 HuT-78/HIV-1 cells were co-cultivated with 1 x 10^5 Sup-T1 cells in 96-well plates (200 μl/well) during 20 h at 37°C, in the presence or absence of a serial dilution of compound. Afterwards, the formation of syncytia was evaluated microscopically. The EC50 was defined as the compound concentration required to suppress syncytia formation by 50%.

HIV-1(IIIB) [9] = assay type: cell-based; settings: MT-4 cells, p24 ELISA at 31 h; AZT 1.9 μM, ritonavir 277 nM
Procedure: Two time-of-drug-addition (TOA) experiments were performed and adopted from previously reported methods. Briefly, MT-4 cells were infected with HIV-1(IIIB) at a multiplicity of infection of 0.5. Following a 1 hour adsorption period, cells were washed, distributed in a 96-well tray at 100,000 cells per 200 μl per well and incubated at 37°C.
For the first experiment, test compounds were added to the infected cell cultures at different time points (i.e. 0, 1, 2, 3, 4, 5, 6, 7, 8, 9, 24, and 25 h) after the start of infection.
In a second experiment, the resolution of the assay was increased by evaluating early time points in more detail. Therefore, the test compounds were added to the infected cell cultures at the following time points after the start of infection: 0, 15, 30, 45, 100 and 180 min; and 24 as well as 25 h.
Product added at time points 0, 15, 30 and 45 min was present at the start of the viral infection and washed away after 1 hour. After washing, fresh product was added to maintain viral suppression throughout the remaining of the experiment.
HIV-1 production was determined at 31 h post infection via a p24 ELISA (Perkin Elmer, Brussels, Belgium).

With `CC(C)CC(=O)N[C@H](C(=O)N[C@H](C(=O)N[C@@H](CC(C)C)[C@@H](O)CC(=O)N[C@@H](C)C(=O)N[C@@H](CC(C)C)[C@@H](O)CC(=O)O)C(C)C)C(C)C` [pepstatin A, reference compound] (Isovaleryl-VV[Sta]A[Sta]-OH) the “inhibition of protease activity” value (HIV-1 protease [1]) was “pronounced inhibitory activity”.

In the case of `COC(=O)CCN(CCC(=O)OC)c1ccc([Te]c2ccc(N(CCC(=O)OC)CCC(=O)OC)cc2)cc1` [TE-10, bis[4-(N,N-di(2-carbomethoxyethyl)amino)phenyl]telluride], the “Ratio IC50/EC50 HIV-1 (CEM)” value (HIV-1(IIIB) [2]; CEM cells) is reported as 16, the EC50 (HIV-1(IIIB) [2]; read-out: EC50 (range given)) is reported as 15 to 16 µM and the EC50 (HIV-1(IIIB) [2]; read-out: EC50 HIV-1 (IIIB)) is reported as 16 ± 7.9 µM. For the same molecule, the “carry-over control: residual compound as cause of decreased infectivity” value (HIV-1 [3]) was “could not be explained by the presence of residual compound”, the IC50 (HeLa cells) was 128 ± 29 µM and the “decrease of protease activity” value (HIV-1 protease [1]) was 50%. For the same molecule, the EC50 (HIV-1(BaL)) was 12 ± 10 µM, the “p55 cleavage in viral particles (Western blot)” value (from here on “p55 cleavage in viral particles”) (HIV-1 protease [4]) was “allow efficient p55 cleavage” and the “Ratio IC50/EC50 HIV-2 (CEM)” value (HIV-2(ROD); CEM cells) was 17. The EC50 (HIV-2(ROD); Human immunodeficiency virus 2, CCRF-CEM, read-out: EC50 HIV-2 (ROD)) was 15 ± 2.6 µM, the EC50 (HIV-1(HE)) was 6.6 ± 2.1 µM and the EC50 (HIV-1(IIIB) [5]) was 12 ± 4 µM. The IC50 (CEM cells) was at least 250 µM, the “fold higher concentration for similar inhibition of luminescence signal than the other organotellurium compounds” value (HIV-1 [6]) was “approximately 10 fold” and the Hydrophobicity [7] was “Hydrophobic”. For the same molecule, the IC50 (PHA-stimulated PBMCs) was 19 ± 2 µM and the IC50 ([8]; Human immunodeficiency virus 1, SUP-T1, 24 h) was over 250 µM.

For `CC(C)c1nc(CN(C)C(=O)N[C@H](C(=O)N[C@@H](Cc2ccccc2)C[C@H](O)[C@H](Cc2ccccc2)NC(=O)OCc2cncs2)C(C)C)cs1` [ritonavir], the “p55 cleavage in viral particles” value (HIV-1 protease [4]) was “blocks this cleavage” and the “time after virus infection that addition could be delayed without losing inhibitory activity” value (HIV-1(IIIB) [9]) was at least 8 h.

For `Cc1cn([C@H]2C[C@H](N=[N+]=[N-])[C@@H](CO)O2)c(=O)[nH]c1=O` [AZT, 3’-azido-2’,3’-dideoxythymidine], the “p55 cleavage in viral particles” value (HIV-1 protease [4]) was “allow efficient p55 cleavage” and the “time after virus infection that addition could be delayed without losing inhibitory activity” value (HIV-1(IIIB) [9]) was “at least 3 h”.

enfuvirtide showed an IC50 ([8]; cocultures of HuT-78/HIV-1 and Sup-T1 cells, ~24 hours) of 0.275 ± 0.15 µM.
